Data set [1] relates to 48 hpf zebrafish embryos. The conditions noted are these: for Cardiotoxic effect in zebrafish: blind screened between 1 and 200 µM, predominant effect.
Description: The image analysis program for the Cardiotoxicity assay was based on the processing of the videos to obtain a periodic signal of the cardiac motion automatically and independent to the embryo position.
The detection of the heart beat frequency was based on the frequency spectrum analysis of the Euclidean Distance (ED) signal (built as the ED between the frames of the video referred to a reference frame calculated with the mean values of intensity for homogeneous zones). Obtaining the periodogram using the Discrete Fourier Transform (DFT), and modifying it to avoid undesired effects, the heart beat frequency was given by its first significant frequency (Figure 3 A).
For embryos with arrhythmia (A), the sinusoidal course of the ED signal was disrupted due to the irregular beating of the heart, i.e. the different beating frequency of each chamber. The classification of the arrhythmia cases was therefore based on the number of significant frequencies detected in the DFT of the ED signal (Figure 3 B).
Embryos at 48 hpf were automatically dispensed in a 96 well plate discarding exterior columns and rows and volume was leveled to 50µl with E3. Compounds were prepared 200 times concentrated in DMSO. A 1∶100 dilution was automatically made from the stock and 50 µl were added to each embryo to reach the final concentration. […] Embryos that moved during video recording were discarded. […] One video per embryo from a minimum of 10 embryos in each treated group were necessary for statistical analysis.
Data set [2] has as its system humans. As to conditions: known effects in humans; cited from earlier work.
In data set [3] the test system is zebrafish embryos. Description: Automated angiogenesis assay (ISV formation), Flk1:copGFP embryos treated at 22-26 hpf, read at 48 hpf. The class given is in vivo. As to conditions: for IC50: manually quantified; for Angiog. inhibition: presence or absence of an anti-angiogenic effect, 0.01-100 µM; for Anti-angiogenic phenotype (ISVs / DLAV): treated at 24 hpf, checked at 48 hpf; for Efective concentration (minimum concentration that showed an effect): given when IC50 could not be calculated.
Description: In the angiogenesis assay, the fluorescent images taken were processed using AxioVision 4.6.3 and a macro was developed to quantify an indirect measure of the area of the ISVs. […] However, we usually include a manual counting to offer a more detailed measurement of effect.
In the automatic analysis of angiogenesis, it is first necessary to perform a sequence of automated filtering functions on the image to extract information, define the region of interest (ROI), that in this case is the part of the tail containing the ISVs, and allow the measurement of the embryo length. Recovering a previous image, new filtering functions are applied to the ROI. A gradient image containing the ISVs, the DLAV (Dorsal Longitudinal Anastomotic Vessel), the PCV and the DA is created. Next, fluorescent areas that should not be quantified are discarded. Finally, only the areas comprised between the ISVs, the DLAV and the PCV or the DA are measured (Figure 4). In that way, when the vessels are incomplete or the DLAV is not present, an enclosed area is not present and therefore not measured.
The means obtained from the treated embryos were compared with the control mean. When statistically significant differences were detected a deeper analysis was done manually. In this case the parameters quantified were:
• The total number of ISVs present in the trunk of the embryos (from where the largest bulge of the yolk ends to the end of the tail). • Number of complete ISVs (reached the dorsal part of the embryo and formed the DLAV).
A curve of six concentrations (0.01, 0.1, 1, 10, 30 and 100 µM) was performed for all of them. […] IC50 was calculated when a clear dose-dependent anti-angiogenesis effect was detected. Otherwise, the minimum dose at which the inhibition of angiogenesis was observed is shown (Table 4).
At this time, chorions were removed with protease from Streptomyces griseus (Sigma-Aldrich) (1.5 mg/ml for 6 minutes) and the embryos were sorted and dispensed 1 per well in a 96 well assay plate. Each experimental condition was tested in a row with ten embryos. Embryos were dispensed in an average final volume of 90 µl of E3 media. 90 µl of the test items (DMSO and positive control KRN633 included) previously diluted 100 times were dispensed into each well of the assay plate containing the embryos to get the final volume of 180 µl and the desired final concentration.
The microscope scanned the wells by columns and a bright field image and a fluorescent image (2.5×magnification) were acquired per well. Then, the image analysis was performed and the result file generated.
Statistical analysis and graphical representation of the data were performed using SSPS (Statistical Package for the Social Sciences) software and Prism (Graph Pad Software) for IC50 calculations (non linear regression, sigmoidal dose-response with variable slope). […] In the angiogenesis assay, for comparisons between two groups, two-tailed t-test was used assuming unequal variances. For comparisons between more than two groups one-way analysis of variance followed by Dunnett’s post-test was applied to compare each data point with vehicle control.

The subject of data set [4] is zebrafish embryos. Description: Embryo analysis at 72 hpf (blood circulation and ISVs development). The format is in vivo. The conditions noted are these: 72 hpf. The procedure:
Embryos from the Flk1:copGFP line were treated with the indicated compounds at 22–23 hpf in 500 µl of E3 in p24 well plates (5 embryos per well). After 48 hours of treatment embryos were anesthetized with 10 µl Tricaine (final concentration 0.02%) and analyzed for the presence of blood circulation and ISVs development using a Leica M205 FA stereoscope equipped with a Hamamatsu C10600 camera.

[5] abbreviates: Danio rerio, read-out: IC50 C.V. (complete number of vessels).
The mark [6] stands for this setting: Danio rerio, read-out: IC50 T.V. (total number of vessels).
Setting [7] is: read-out: IC50 C.V. (complete number of vessels).
[8] abbreviates: read-out: IC50 T.V. (total number of vessels).

SMILES strings stand for the structures. “Also recorded” adds a separate entry of the source. Where a name gives a salt, the structure may show the parent alone. Read-outs that look alike come from different tables or passages of the source.

Broadly, the IC50 is the concentration that inhibits the measured activity by half.

As for `CCS(=O)(=O)N(C)[C@H]1c2cc(C#N)ccc2OC(C)(C)[C@@H]1O` (racemic) [Chromanol 293b], the “Cardiotoxic effect in zebrafish” value in data set [1] is “No effect”. For the same compound, in data set [2], the “Cardiac effect in humans” value was “QT-prolong”.
In the case of `COc1cc2c(cc1O)CC[C@@H]1[C@@H]2CC[C@]2(C)[C@@H](O)CC[C@@H]12` [2-Methoxyestradiol], the IC50 in data set [3] (setting [5]) came out at 10.2 µM. The IC50 in data set [3] (setting [6]) came to 30.6 µM. In data set [3], the Angiog. inhibition entry is on record as “Yes” and the “Anti-angiogenic phenotype (ISVs / DLAV)” value is recorded as “the formation of ISVs was perturbed with defective or total absence of sprouting”.
On to `Cc1cn[nH]c1.Cl` [4-Methylpyrazole hydrochloride], for which the Angiog. inhibition result in data set [3] is recorded as “No”.
Consider `COc1cc2ncnc(Nc3cccc(Cl)c3)c2cc1OC` [AG1478], for which the figures for the IC50 in data set [3] (setting [7]) and in data set [3] (setting [8]) were 13 µM and 22.8 µM, respectively. Further, in data set [3], the Angiog. inhibition entry is “Yes”. Further, in data set [3], the “Anti-angiogenic phenotype (ISVs / DLAV)” value is listed as “the formation of ISVs was perturbed with defective or total absence of sprouting; also recorded: lower number of incomplete ISVs”.
Take `COc1cc2ncc(-c3ccccc3)nc2cc1OC` [AG-1296]: in data set [4], the Blood circulation result is recorded as “impaired blood circulation” and the ISVs appearance result is “thinner ISVs that were disrupted in some cases”. In data set [3], the “Efective concentration (minimum concentration that showed an effect)” value is recorded as 20 µM, the Angiog. inhibition entry was “Yes” and the “Anti-angiogenic phenotype (ISVs / DLAV)” value is “moderate effect that did not increase with higher doses”. Further, the “Anti-angiogenic phenotype (ISVs / DLAV)” value in data set [3] (listed as AG1296) is “inhibit proper development of the DLAV; also recorded: thinner ISVs rather than incomplete vessel formation”.
With `CC(N)=O` [Acetamide], in data set [3], the Angiog. inhibition entry was “No”.
For the compound `CCCCc1oc2ccccc2c1C(=O)c1cc(I)c(OCCN(CC)CC)c(I)c1` [Amiodarone hydrochloride], in data set [3], the Angiog. inhibition entry is “No”.
For `CCCCc1oc2ccccc2c1C(=O)c1cc(I)c(OCCN(CC)CC)c(I)c1` [Amiodarone], the “Cardiac effect in humans” value in data set [2] was “QT-prolong”.
On to `COc1ccc(CCN2CCC(Nc3nc4ccccc4n3Cc3ccc(F)cc3)CC2)cc1` [Astemizole], for which the “Cardiac effect in humans” value in data set [2] is given as “QT-prolong”.
Regarding `CC(C)C[C@H](NC(=O)[C@@H](O)[C@H](N)Cc1ccccc1)C(=O)O` [Bestatin], the Angiog. inhibition result in data set [3] is on record as “No”.
For the compound `COc1cc(N)c(Cl)cc1C(=O)NC1CCN(CCCOc2ccc(F)cc2)CC1OC` (stereo not drawn) [Cisapride], the “Cardiac effect in humans” value in data set [2] is on record as “QT-prolong”.
For the compound `C[C@H]1O[C@@H](O[C@H]2[C@@H](O)C[C@H](O[C@H]3[C@@H](O)C[C@H](O[C@H]4CC[C@@]5(C)[C@H](CC[C@@H]6[C@@H]5CC[C@]5(C)[C@@H](C7=CC(=O)OC7)CC[C@]65O)C4)O[C@@H]3C)O[C@@H]2C)C[C@H](O)[C@@H]1O` [Digitoxin], the Predominant observed effect entry in data set [1] (48 hpf zebrafish embryos, 5 µM) is “N”. Further, the “Cardiotoxic effect in zebrafish” value in data set [1] is “Cardiac arrest”.
For the compound `COc1cccc2c1C(=O)c1c(O)c3c(c(O)c1C2=O)C[C@@](O)(C(=O)CO)C[C@@H]3O[C@H]1C[C@H](N)[C@H](O)[C@H](C)O1` [Doxorrubicin], the “Cardiac effect in humans” value in data set [2] was “No effect”.
`CC(C)C[C@H](NC(=O)[C@H]1O[C@@H]1C(=O)O)C(=O)NCCCCN=C(N)N` [E64]: the Angiog. inhibition entry in data set [3] is given as “No”.
As for `CNCCC(Oc1ccc(C(F)(F)F)cc1)c1ccccc1` (stereo not drawn) [Fluoxetine], the “Cardiac effect in humans” value in data set [2] is “Arrhythmia”.
Regarding `O=C(O)P(=O)(O)O` [Foscarnet], in data set [1], the “Cardiotoxic effect in zebrafish” value is “Bradycardia”. Also, the “Cardiac effect in humans” value in data set [2] is reported as “Bradycardia”.
As to `CO[C@@H]1[C@H](OC(=O)/C=C/C=C/C=C/C=C/C(=O)O)CC[C@]2(CO2)[C@H]1[C@@]1(C)O[C@@H]1CC=C(C)C` [Fumagillin], the Angiog. inhibition result in data set [3] was “not detected and No”.
On to `COC(=O)c1ccc(O)c(NC(=O)COc2ccc(C34CC5CC(CC(C5)C3)C4)cc2)c1` [HIF-1 Inhibitor], for which the values for the Angiog. inhibition result in data set [3] and in data set [3] (listed as Hif-1 inhibitor) were “No” and “not detected”, respectively.
For `O=C1Nc2ccccc2/C1=C1/Nc2ccccc2/C1=N\O` [Indirubin-3̀-oxime], the IC50 in data set [3] (setting [7]) came to 4.2 µM. In addition, in data set [3] (setting [8]), the IC50 was 18.3 µM. For the same compound, in data set [3], the Angiog. inhibition entry is listed as “Yes” and the “Anti-angiogenic phenotype (ISVs / DLAV)” value is given as “the formation of ISVs was perturbed with defective or total absence of sprouting”.
Consider `CCCNC(=O)Nc1ccc(Oc2ncnc3cc(OC)c(OC)cc23)cc1Cl` [KRN633], for which the IC50 in data set [3] (setting [5]) is 0.026 µM. The IC50 in data set [3] (setting [6]) is 0.035 µM. Also, in data set [3], the Angiog. inhibition entry is given as “Yes” and the “Anti-angiogenic phenotype (ISVs / DLAV)” value was “the formation of ISVs was perturbed with defective or total absence of sprouting”.
Consider `O=C(c1ccc(F)cc1)C1CCN(CCn2c(=O)[nH]c3ccccc3c2=O)CC1` [Ketanserin], for which, in data set [2], the “Cardiac effect in humans” value was “Bradycardia”.
With `CS(=O)(=O)CCNCc1ccc(-c2ccc3ncnc(Nc4ccc(OCc5cccc(F)c5)c(Cl)c4)c3c2)o1` [Lapatinib], the “Cardiac effect in humans” value in data set [2] is reported as “No effect”.
Regarding `CCN(CC)CC(=O)Nc1c(C)cccc1C` [Lidocaine], the “Cardiac effect in humans” value in data set [2] was “Bradycardia”.
As for `CC(=O)N[C@@H](CS)C(=O)O` [N-Acetyl-L-cysteine], the Angiog. inhibition result in data set [3] is on record as “No”.
With `CN1CCC[C@H]1c1cccnc1` [Nicotine], the “Cardiotoxic effect in zebrafish” value in data set [1] is “Bradycardia”. The “Cardiac effect in humans” value in data set [2] is reported as “Bradycardia”.
With `CCOC(=O)C1=C(C)NC(C)=C(C(=O)OC)C1c1cccc([N+](=O)[O-])c1` (stereo not drawn) [Nitrendipine], in data set [2], the “Cardiac effect in humans” value was “Cardiac arrest”.
Take `Nc1nc(OCc2ccccc2)c2nc[nH]c2n1` [O6-benzylguanine]: the Angiog. inhibition result in data set [3] is reported as “No”.
As for `COc1cc(OC)cc(-c2cc3cnc(N)nc3nc2NC(=O)NC(C)(C)C)c1` [PD166866], in data set [3] (setting [7]), the IC50 is 16 µM. The half-inhibitory concentration (IC50) in data set [3] (setting [8]) is 43.9 µM. For the same compound, in data set [3], the Angiog. inhibition result is recorded as “Yes” and the “Anti-angiogenic phenotype (ISVs / DLAV)” value is “the formation of ISVs was perturbed with defective or total absence of sprouting; also recorded: strong angiogenesis inhibition”.
Regarding `COc1cc2nccc(Oc3ccc(NC(=S)NC(=O)c4ccccc4C)cc3)c2cc1OC` [PDGFR tyr kin inhibitor V], the results for the IC50 in data set [3] (setting [7]) and in data set [3] (setting [8]) were 0.14 µM and 0.19 µM, respectively. Moreover, the Angiog. inhibition result in data set [3] was “Yes”. The “Anti-angiogenic phenotype (ISVs / DLAV)” value is listed as “the formation of ISVs was perturbed with defective or total absence of sprouting” in data set [3] (listed as PDGFR tyrosine kinase inhibitor) and “strong angiogenesis inhibition” in data set [3] (listed as PDGFR tyrosine kinase inhibitor V).
As for `CC[C@@H]1C(=O)OC[C@@H]1Cc1cncn1C` [Pilocarpine], the “Cardiac effect in humans” value in data set [2] was “No effect”.
As for `O=c1[nH]c2ccccc2n1C1CCN(CCCC(c2ccc(F)cc2)c2ccc(F)cc2)CC1` [Pimozide], in data set [2], the “Cardiac effect in humans” value is listed as “QT-prolong”.
As to `Cc1nc2n(c(=O)c1CCN1CCC(c3noc4cc(F)ccc34)CC1)CCCC2` [Risperidone], in data set [2], the “Cardiac effect in humans” value is on record as “QT-prolong”.
As to `N#Cc1cc2c(OCC(O)CN3CCN(C(c4ccccc4)c4ccccc4)CC3)cccc2[nH]1` (stereo not drawn) [SDZ-201106], the “Cardiotoxic effect in zebrafish” value in data set [1] was 2∶1 arrhythmia and type 2∶1 arrhythmias and Arrhythmia 2∶1. Further, the “Cardiac effect in humans” value in data set [2] is recorded as “QT-prolong”.
With `O=C1NCCN1CCN1CCC(c2cn(-c3ccc(F)cc3)c3ccc(Cl)cc23)CC1` [Sertindol], the “Cardiac effect in humans” value in data set [2] was “QT-prolong”.
Regarding `CC(C)(C)c1ccc(C(O)CCCN2CCC(C(O)(c3ccccc3)c3ccccc3)CC2)cc1` (stereo not drawn) [Terfenadine], the “Concentration at which detected as potential QT-prolongation inducer” value in data set [1] (tested at 0.1, 1, 5, 10, 20 and 50 µM) came out at 5 µM.
With `CC(CC(c1ccccc1)c1ccccc1)NC(C)(C)C` (stereo not drawn) [Terodiline], in data set [1], the “Cardiotoxic effect in zebrafish” value is reported as “Arrhythmia 2∶1”. In data set [2], the “Cardiac effect in humans” value is “QT-prolong”.
`C[C@]12CC[C@H]3[C@@H](CCC4=CC(=O)CC[C@@]43C)[C@@H]1CC[C@@H]2O` [Testosterone]: the “Cardiotoxic effect in zebrafish” value in data set [1] was “Bradycardia”. For the same compound, the “Cardiac effect in humans” value in data set [2] is listed as “Bradycardia”.
`COc1ccc2cc(-c3nc(-c4ccc([S+](C)[O-])cc4)[nH]c3-c3ccncc3)ccc2c1` (stereo not drawn) [Tie2 Kinase inhibitor]: the Angiog. inhibition result in data set [3] was “No”; in data set [3] (listed as Tie-2 kinase inhibitor), “not detected”.
Regarding `CC(C)(C)NC[C@H](O)COc1nsnc1N1CCOCC1` [Timolol], the “Cardiac effect in humans” value in data set [2] is “Bradycardia”.
With `N#C/C(=C\c1ccc(O)c(O)c1)C(=O)NCc1ccccc1` [Tyrphostin AG490], the Angiog. inhibition result in data set [3] was “No”.
Consider `COc1cc2c(Nc3ccc(Br)cc3F)ncnc2cc1OCC1CCN(C)CC1` [ZD6474 (Vandetanib), Vandetanib], for which, in data set [3], the “Efective concentration (minimum concentration that showed an effect)” value is on record as 100 µM, the Angiog. inhibition result is “Yes” and the “Anti-angiogenic phenotype (ISVs / DLAV)” value is “the formation of ISVs was perturbed with defective or total absence of sprouting”.
On to `O=C1Cc2cc(CCN3CCN(c4nsc5ccccc45)CC3)c(Cl)cc2N1` [Ziprasidone], for which, in data set [2], the “Cardiac effect in humans” value is given as “QT-prolong”.
For `N.N.[Cl][Pt][Cl]` [cis-Diammineplatinum(II) dichloride], in data set [3], the Angiog. inhibition entry is recorded as “No”.

The values are drawn from publication PMC3352927, “Development and Validation of an Automated High-Throughput System for Zebrafish In Vivo Screenings” (PLoS ONE, 2012).
